# Assay results from patent US12534452B2, “N-(1H-imidazol-2-yl)benzamide compound and pharmaceutical composition comprising the same as active ingredient” (KAINOS MEDICINE, INC., priority 2019, dated 2026).
# Target: IRAK4 (Homo sapiens (Human), UniProt Q9NWZ3)
# Assay: In vitro IRAK4 phosphorylation activity assay
# Format: biochemical
# Conditions: [γ-33P]-ATP, myelin basic protein substrate, 40 minutes at room temperature; categories
# How it was run: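 Radiometric filter-binding assay, no compound–kinase preincubation; 8 mM MOPS pH 7.0, 0.2 mM EDTA, 10 mM Mg acetate, 0.33 mg/mL myelin basic protein substrate, [γ-33P]-ATP. Reaction 40 min at room temperature, stopped with phosphoric acid, scintillation counting; IC50 reported in categories.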
# Sequence of IRAK4 (Q9NWZ3 whole entry): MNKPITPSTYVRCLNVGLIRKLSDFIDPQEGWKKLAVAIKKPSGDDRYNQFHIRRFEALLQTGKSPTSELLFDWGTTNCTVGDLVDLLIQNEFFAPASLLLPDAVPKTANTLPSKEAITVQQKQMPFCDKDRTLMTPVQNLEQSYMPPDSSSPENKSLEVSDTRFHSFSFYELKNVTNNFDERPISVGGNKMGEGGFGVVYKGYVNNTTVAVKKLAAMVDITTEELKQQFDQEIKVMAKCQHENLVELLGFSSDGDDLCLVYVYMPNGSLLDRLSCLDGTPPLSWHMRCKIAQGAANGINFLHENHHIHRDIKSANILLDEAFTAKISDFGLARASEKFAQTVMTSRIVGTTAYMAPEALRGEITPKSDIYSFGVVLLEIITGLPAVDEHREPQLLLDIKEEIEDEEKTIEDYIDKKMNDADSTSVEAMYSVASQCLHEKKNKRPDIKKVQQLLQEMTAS
row,IC50,Structure (SMILES)
1,< 50 nM,"COC[C@@H]1CCCN1NC(=O)CCCCCc1cn(-c2ccccc2)c(NC(=O)c2cccc(-c3cn[nH]c3)c2)n1 [Example 98, (S)—N-(4-(6-((2-(methoxymethyl)pyrrolidin-1-yl)amino)-6-oxohexyl)-1-phenyl-1H-imidazol-2-yl)-3-(1H-pyrazol-4-yl)benzamide]"
2,> 100 nM,"O=C(CCc1cn(CC2CCCCC2)c(NC(=O)c2cccc(-c3cn[nH]c3)c2)n1)Nc1ccccc1 [Example 295, N-(1-(cyclohexylmethyl)-4-(3-oxo-3-(phenylamino)propyl)-1H-imidazol-2-yl)-3-(1H-pyrazol-4-yl)benzamide]"
3,< 50 nM,"O=C(Nc1nc(CCO)cn1-c1ccccc1)c1cccc(-c2cn[nH]c2)c1 [Example 103, N-(4-(2-hydroxyethyl)-1-phenyl-1H-imidazol-2-yl)-3-(1H-pyrazol-4-yl)benzamide]"
4,< 50 nM,"O=C(Nc1nc(CCCCCCN2CCCCC2)cn1-c1ccccc1)c1cccc(-c2cn[nH]c2)c1 [Example 102, N-(1-phenyl-4-(6-(piperidin-1-yl)hexyl)-1H-imidazol-2-yl)-3-(1H-pyrazol-4-yl)benzamide]"
5,< 50 nM,"Cn1cc(-c2cccc(C(=O)Nc3nc(CCCC(=O)NC4CCOCC4)cn3-c3ccccc3)c2)cn1 [Example 157, 3-(1-methyl-1H-pyrazol-4-yl)-N-(4-(4-oxo-4-((tetrahydro-2H-pyran-4-yl)amino)butyl)-1-phenyl-1H-imidazol-2-yl)benzamide]"
6,< 50 nM,"Cn1cc(-c2cccc(C(=O)Nc3nc(CCCC(=O)Nc4cc[nH]n4)cn3-c3ccccc3)c2)cn1 [Example 217, N-(4-(4-((1H-pyrazol-3-yl)amino)-4-oxobutyl)-1-phenyl-1H-imidazol-2-yl)-3-(1-methyl-1H-pyrazol-4-yl)benzamide]"
7,< 50 nM,"CN1CCN(C(=O)CCCc2cn(-c3ccccc3)c(NC(=O)c3cccc(-c4cnn(C)c4)c3)n2)CC1 [Example 143, 3-(1-methyl-1H-pyrazol-4-yl)-N-(4-(4-(4-methylpiperazin-1-yl)-4-oxobutyl)-1-phenyl-1H-imidazol-2-yl)benzamide]"
8,< 50 nM,"Cn1cc(-c2cccc(C(=O)Nc3nc(CCCC(=O)Nc4ccn(C)n4)cn3-c3ccccc3)c2)cn1 [Example 190, N-(4-(4-((1-methyl-1H-pyrazol-3-yl)amino)-4-oxobutyl)-1-phenyl-1H-imidazol-2-yl)-3-(1-methyl-1H-pyrazol-4-yl)benzamide]"
9,< 50 nM,"Cn1cc(-c2cccc(C(=O)Nc3nc(CCCC(=O)NCC4CCOC4)cn3-c3ccccc3)c2)cn1 (stereo not drawn) [Example 180, 3-(1-methyl-1H-pyrazol-4-yl)-N-(4-(4-oxo-4-(((tetrahydrofuran-3-yl)methyl)amino)butyl)-1-phenyl-1H-imidazol-2-yl)benzamide]"
10,< 50 nM,"Cn1cc(-c2cccc(C(=O)Nc3nc(CCCCC(=O)N4CCC[C@H](C(=O)O)C4)cn3-c3ccccc3)c2)cn1 [Example 208, (S)-1-(5-(2-(3-(1-methyl-1H-pyrazol-4-yl)benzamido)-1-phenyl-1H-imidazol-4-yl)pentanoyl)piperidine-3-carboxylic acid]"
11,< 50 nM,"CNC(=O)CCCc1cn(-c2ccccc2)c(NC(=O)c2cccc(-c3ccncc3)c2)n1 [Example 266, N-(4-(4-(methylamino)-4-oxobutyl)-1-phenyl-1H-imidazol-2-yl)-3-(pyridin-4-yl)benzamide]"
12,< 50 nM,"O=C(CCCc1cn(-c2ccccc2)c(NC(=O)c2cccc(-c3ccncc3)c2)n1)NC1CC1 [Example 267, N-(4-(4-(cyclopropylamino)-4-oxobutyl)-1-phenyl-1H-imidazol-2-yl)-3-(pyridin-4-yl)benzamide]"
13,< 50 nM,"O=C(CCCc1cn(-c2ccccc2)c(NC(=O)c2cccc(-c3cnn(C(F)(F)F)c3)c2)n1)NC1CC1 [Example 236, N-(4-(4-(cyclopropylamino)-4-oxobutyl)-1-phenyl-1H-imidazol-2-yl)-3-(1-(trifluoromethyl)-1H-pyrazol-4-yl)benzamide]"
14,< 50 nM,"O=C(Nc1nc(CCCCCCN2CCOCC2)cn1-c1ccccc1)c1cccc(-c2cn[nH]c2)c1 [Example 123, N-(4-(6-morpholinohexyl)-1-phenyl-1H-imidazol-2-yl)-3-(1H-pyrazol-4-yl)benzamide]"
15,< 50 nM,"COC[C@@H]1CCCN1NC(=O)CCCCc1cn(-c2ccccc2)c(NC(=O)c2cccc(-c3cn[nH]c3)c2)n1 [Example 84, (S)—N-(4-(5-((2-(methoxymethyl)pyrrolidin-1-yl)amino)-5-oxopentyl)-1-phenyl-1H-imidazol-2-yl)-3-(1H-pyrazol-4-yl)benzamide]"
16,< 50 nM,"Cn1cc(-c2cccc(C(=O)Nc3nc(CCCC(=O)N4CCN(C5CC5)CC4)cn3-c3ccccc3)c2)cn1 [Example 149, N-(4-(4-(4-cyclopropylpiperazin-1-yl)-4-oxobutyl)-1-phenyl-1H-imidazol-2-yl)-3-(1-methyl-1H-pyrazol-4-yl)benzamide]"
17,< 50 nM,"Cn1cc(-c2cccc(C(=O)Nc3nc(CCCC(=O)NCCCN4CCCCC4)cn3-c3ccccc3)c2)cn1 [Example 158, 3-(1-methyl-1H-pyrazol-4-yl)-N-(4-(4-oxo-4-((3-(piperidin-1-yl)propyl)amino)butyl)-1-phenyl-1H-imidazol-2-yl)benzamide]"

row,IC50,Structure (SMILES)
1,< 50 nM,"Cn1cc(-c2cccc(C(=O)Nc3nc(CCCCC(=O)N4CCC(N)CC4)cn3-c3ccccc3)c2)cn1 [Example 213, N-(4-(5-(4-aminopiperidin-1-yl)-5-oxopentyl)-1-phenyl-1H-imidazol-2-yl)-3-(1-methyl-1H-pyrazol-4-yl)benzamide]"
2,< 50 nM,"O=C(Nc1nc(CCCC(=O)N2CCCCC2)cn1-c1ccccc1)c1cccc(-c2ccc3[nH]ncc3c2)c1 [Example 246, 3-(1H-indazol-5-yl)-N-(4-(4-oxo-4-(piperidin-1-yl)butyl)-1-phenyl-1H-imidazol-2-yl)benzamide]"
3,> 100 nM,"O=C(Nc1nc(CCC(=O)N2CCN(Cc3ccc(OC(F)(F)F)cc3)CC2)cn1-c1ccccc1)c1cccc(-c2cn[nH]c2)c1 [Example 14, N-(4-(3-oxo-3-(4-(4-(trifluoromethoxy)benzyl)piperazin-1-yl)propyl)-1-phenyl-1H-imidazol-2-yl)-3-(1H-pyrazol-4-yl)benzamide]"
4,< 50 nM,"Cn1cc(-c2cccc(C(=O)Nc3nc(CCCC(=O)N4CCC(C)(C)CC4)cn3-c3ccccc3)c2)cn1 [Example 167, N-(4-(4-(4,4-dimethylpiperidin-1-yl)-4-oxobutyl)-1-phenyl-1H-imidazol-2-yl)-3-(1-methyl-1H-pyrazol-4-yl)benzamide]"
5,< 50 nM,"Cn1cc(-c2cccc(C(=O)Nc3nc(CCCC(=O)Nc4ccc5c(cnn5C)c4)cn3-c3ccccc3)c2)cn1 [Example 191, N-(4-(4-((1-methyl-1H-indazol-5-yl)amino)-4-oxobutyl)-1-phenyl-1H-imidazol-2-yl)-3-(1-methyl-1H-pyrazol-4-yl)benzamide]"
6,< 50 nM,"O=C(Nc1nc(CCCCC(=O)N2CCCCC2)cn1-c1ccccc1)c1cccc(-c2cn[nH]c2)c1 [Example 79, N-(4-(5-oxo-5-(piperidin-1-yl)pentyl)-1-phenyl-1H-imidazol-2-yl)-3-(1H-pyrazol-4-yl)benzamide]"
7,< 50 nM,"Cn1cc(-c2cccc(C(=O)Nc3nc(CCCC(=O)Nc4ccncc4)cn3-c3ccccc3)c2)cn1 [Example 150, 3-(1-methyl-1H-pyrazol-4-yl)-N-(4-(4-oxo-4-(pyridin-4-ylamino)butyl)-1-phenyl-1H-imidazol-2-yl)benzamide]"
8,< 50 nM,"C[C@@H]1CCCCN1C(=O)CCCCCc1cn(-c2ccccc2)c(NC(=O)c2cccc(-c3cn[nH]c3)c2)n1 [Example 96, (R)—N-(4-(6-(2-methylpiperidin-1-yl)-6-oxohexyl)-1-phenyl-1H-imidazol-2-yl)-3-(1H-pyrazol-4-yl)benzamide]"
9,< 50 nM,"COC[C@H]1CCCN1C(=O)CCCc1cn(-c2ccccc2)c(NC(=O)c2cccc(-c3cn[nH]c3)c2)n1 [Example 56, (R)—N-(4-(4-(2-(methoxymethyl)pyrrolidin-1-yl)-4-oxobutyl)-1-phenyl-1H-imidazol-2-yl)-3-(1H-pyrazol-4-yl)benzamide]"
10,< 50 nM,"COC(=O)CCc1cn(-c2ccccc2)c(NC(=O)c2cccc(-c3cn[nH]c3)c2)n1 [Example 18, methyl 3-(2-(3-(1H-pyrazol-4-yl)benzamido)-1-phenyl-1H-imidazol-4-yl)propanoate]"
11,> 100 nM,"O=C(CCCCCc1cn(-c2ccccc2)c(NC(=O)c2cccc(-c3ccc4scnc4c3)c2)n1)NC1CC1 [Example 290, 3-(benzo[d]thiazol-5-yl)-N-(4-(6-(cyclopropylamino)-6-oxohexyl)-1-phenyl-1H-imidazol-2-yl)benzamide]"
12,< 50 nM,"O=C(Nc1nc(CCCCCC(=O)N2CCCCCC2)cn1-c1ccccc1)c1cccc(-c2ccc3[nH]ncc3c2)c1 [Example 241, N-(4-(6-(azepan-1-yl)-6-oxohexyl)-1-phenyl-1H-imidazol-2-yl)-3-(1H-indazol-5-yl)benzamide]"
13,< 50 nM,"Cn1cc(-c2cccc(C(=O)Nc3nc(CCCCCCN4C(=O)CCC4=O)cn3-c3ccccc3)c2)cn1 [Example 226, N-(4-(6-(2,5-dioxopyrrolidin-1-yl)hexyl)-1-phenyl-1H-imidazol-2-yl)-3-(1-methyl-1H-pyrazol-4-yl)benzamide]"
14,> 100 nM,"CNC(=O)Cc1cn(-c2ccccc2)c(NC(=O)c2ccc(-c3cn[nH]c3)cc2)n1 [Example 48, N-(4-(2-(methylamino)-2-oxoethyl)-1-phenyl-1H-imidazol-2-yl)-4-(1H-pyrazol-4-yl)benzamide]"
15,< 50 nM,"CN(C)C1CCC(NC(=O)CCCc2cn(-c3ccccc3)c(NC(=O)c3cccc(-c4cnn(C)c4)c3)n2)CC1 (stereo not drawn) [Example 147, N-(4-(4-((4-(dimethylamino)cyclohexyl)amino)-4-oxobutyl)-1-phenyl-1H-imidazol-2-yl)-3-(1-methyl-1H-pyrazol-4-yl)benzamide]"
16,< 50 nM,"O=C(Nc1nc(CCCCN2CCSCC2)cn1-c1ccccc1)c1cccc(-c2cn[nH]c2)c1 [Example 115, N-(1-phenyl-4-(4-thiomorpholinobutyl)-1H-imidazol-2-yl)-3-(1H-pyrazol-4-yl)benzamide]"
